Reference: PubChem BioAssay (NCI)
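Values below derive from 48-hour exposures of cells grown in 96-well plates, with endpoints linearly interpolated between the two concentrations bracketing the appropriate inhibition level. The concentration for 50% growth inhibition is given as GI50. TGI denotes the concentration required for complete inhibition of growth.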

Legend:
Assay in all cases: NCI anticancer screen, dose series, 48 h
[1] = system: 786-0 renal
[2] = system: A498 renal
[3] = system: A549 NSCLC
[4] = system: ACHN renal
[5] = system: BT-549 breast
[6] = system: CAKI-1 renal
[7] = system: CCRF-CEM leukemia
[8] = system: COLO 205 colon
[9] = system: DU-145 prostate
[10] = system: EKVX NSCLC
[11] = system: HCC-2998 colon
[12] = system: HCT-116 colon
[13] = system: HCT-15 colon
[14] = system: HL-60(TB) leukemia
[15] = system: HOP-62 NSCLC
[16] = system: HOP-92 NSCLC
[17] = system: HS 578T breast
[18] = system: HT29 colon
[19] = system: IGROV1 ovarian
[20] = system: K-562 leukemia
[21] = system: KM12 colon
[22] = system: LOX IMVI melanoma
[23] = system: M14 melanoma
[24] = system: MALME-3M melanoma
[25] = system: MCF7 breast
[26] = system: MDA-MB-231 breast
[27] = system: MDA-MB-435
[28] = system: MOLT-4 leukemia
[29] = system: NCI-H226 lung
[30] = system: NCI-H23 lung
[31] = system: NCI-H460 lung
[32] = system: NCI-H522 lung
[33] = system: NCI/ADR-RES ovarian
[34] = system: OVCAR-3 ovarian
[35] = system: OVCAR-4 ovarian
[36] = system: OVCAR-5 ovarian
[37] = system: OVCAR-8 ovarian
[38] = system: PC-3 prostate
[39] = system: RPMI-8226 leukemia
[40] = system: RXF 393 renal
[41] = system: SF-268 CNS
[42] = system: SF-295 CNS
[43] = system: SF-539 CNS
[44] = system: SK-MEL-2 melanoma
[45] = system: SK-MEL-28 melanoma
[46] = system: SK-MEL-5 melanoma
[47] = system: SK-OV-3 ovarian
[48] = system: SN12C renal
[49] = system: SNB-19 CNS
[50] = system: SNB-75 CNS
[51] = system: SR leukemia
[52] = system: SW-620 colon
[53] = system: T-47D breast
[54] = system: TK-10 renal
[55] = system: U251 CNS
[56] = system: UACC-62 melanoma
[57] = system: UO-31 renal
[58] = system: UACC-257 melanoma

Structure (SMILES): Cc1ccc(Cl)cc1-c1nc(N)nc(Nc2ccc(Br)cc2)n1
- GI50 [1]: 0.0596 µM
- TGI [1]: > 100 µM
- GI50 [2]: 0.0326 µM
- TGI [2]: 2.47 µM
- GI50 [3]: 0.0663 µM
- TGI [3]: > 100 µM
- GI50 [4]: 0.0911 µM
- TGI [4]: > 100 µM
- GI50 [5]: 0.0581 µM
- GI50 [6]: 19.2 µM
- TGI [6]: > 100 µM
- GI50 [7]: 0.0444 µM
- GI50 [8]: 0.0454 µM
- TGI [8]: 0.254 µM
- GI50 [9]: 0.069 µM
- TGI [9]: > 56.5 µM
- GI50 [10]: 0.667 µM
- TGI [10]: > 100 µM
- GI50 [11]: 0.16 µM
- GI50 [12]: 0.0435 µM
- TGI [12]: > 100 µM
- GI50 [13]: 0.0535 µM
- TGI [13]: > 100 µM
- GI50 [14]: 0.0305 µM
- GI50 [15]: 0.0723 µM
- TGI [15]: > 100 µM
- GI50 [16]: 2.28 µM
- TGI [16]: > 100 µM
- GI50 [17]: 0.0455 µM
- TGI [17]: > 48.5 µM
- GI50 [18]: 0.0365 µM
- GI50 [19]: 0.15 µM
- TGI [19]: > 100 µM
- GI50 [20]: 0.0422 µM
- TGI [20]: > 100 µM
- GI50 [21]: 0.0503 µM
- TGI [21]: > 100 µM
- GI50 [22]: 0.0687 µM
- TGI [22]: > 100 µM
- GI50 [23]: 0.0414 µM
- TGI [23]: > 100 µM
- GI50 [24]: 0.0703 µM
- TGI [24]: > 100 µM
- GI50 [25]: 0.0456 µM
- TGI [25]: > 100 µM
- GI50 [26]: 0.139 µM
- TGI [26]: > 100 µM
- GI50 [27]: 0.0222 µM
- TGI [27]: 0.0598 µM
- GI50 [28]: 0.0883 µM
- TGI [28]: > 22.1 µM
- GI50 [29]: 1.74 µM
- GI50 [30]: 0.0739 µM
- GI50 [31]: 0.0385 µM
- TGI [31]: > 38.7 µM
- GI50 [32]: 0.0332 µM
- GI50 [33]: 0.0347 µM
- TGI [33]: 0.208 µM
- GI50 [34]: 0.0317 µM
- GI50 [35]: 0.274 µM
- TGI [35]: > 100 µM
- GI50 [36]: 0.358 µM
- TGI [36]: > 100 µM
- GI50 [37]: 0.0745 µM
- TGI [37]: > 100 µM
- GI50 [38]: 0.0538 µM
- TGI [38]: > 100 µM
- GI50 [39]: 0.0851 µM
- TGI [39]: > 100 µM
- GI50 [40]: 0.0309 µM
- TGI [40]: 3.99 µM
- TGI [41]: > 100 µM
- GI50 [42]: 0.041 µM
- TGI [42]: > 100 µM
- GI50 [43]: 0.0406 µM
- TGI [43]: > 29 µM
- GI50 [44]: 0.0692 µM
- TGI [44]: > 100 µM
- GI50 [45]: 0.126 µM
- TGI [45]: > 100 µM
- GI50 [46]: 0.0411 µM
- TGI [46]: > 100 µM
- GI50 [47]: 0.0517 µM
- TGI [47]: 21 µM
- GI50 [48]: 0.0628 µM
- TGI [48]: > 100 µM
- GI50 [49]: 0.0832 µM
- TGI [49]: > 100 µM
- GI50 [50]: 0.029 µM
- TGI [50]: > 100 µM
- GI50 [51]: 0.0361 µM
- TGI [51]: > 100 µM
- GI50 [52]: 0.0408 µM
- TGI [52]: > 100 µM
- GI50 [53]: 22.6 µM
- TGI [53]: > 100 µM
- GI50 [54]: 3.29 µM
- TGI [54]: > 100 µM
- GI50 [55]: 0.0461 µM
- TGI [55]: 8.72 µM
- GI50 [56]: 0.0594 µM
- TGI [56]: > 100 µM
- GI50 [57]: 0.0733 µM
- TGI [57]: > 100 µM

Structure (SMILES): O=C(N/N=C/c1c(Cl)cccc1Cl)c1cccnc1Nc1cccc(C(F)(F)F)c1
- GI50 [1]: 3.87 µM
- TGI [1]: 27.9 µM
- GI50 [2]: 3.13 µM
- TGI [2]: 32.8 µM
- GI50 [3]: 4.69 µM
- TGI [3]: > 100 µM
- GI50 [4]: 3.04 µM
- TGI [4]: 20.8 µM
- GI50 [5]: 3.28 µM
- TGI [5]: 55.5 µM
- GI50 [7]: 0.323 µM
- TGI [7]: 10.8 µM
- GI50 [8]: 2.9 µM
- TGI [8]: 37.9 µM
- GI50 [9]: 5.35 µM
- TGI [9]: > 100 µM
- GI50 [10]: 2.25 µM
- TGI [10]: 27.4 µM
- GI50 [11]: 3.86 µM
- TGI [11]: > 100 µM
- GI50 [12]: 1.53 µM
- TGI [12]: 18.1 µM
- GI50 [13]: 0.668 µM
- TGI [13]: > 100 µM
- GI50 [14]: 3.15 µM
- TGI [14]: 34.1 µM
- GI50 [15]: 3.97 µM
- TGI [15]: 20.8 µM
- GI50 [16]: 4.01 µM
- TGI [16]: 25.5 µM
- GI50 [17]: 3.59 µM
- TGI [17]: 26.2 µM
- GI50 [18]: 4.7 µM
- TGI [18]: > 100 µM
- GI50 [19]: 2.41 µM
- TGI [19]: 54.9 µM
- GI50 [20]: 3.57 µM
- TGI [20]: > 100 µM
- GI50 [21]: 3.24 µM
- TGI [21]: 57.3 µM
- GI50 [22]: 1.83 µM
- TGI [22]: 19 µM
- GI50 [23]: 2.72 µM
- TGI [23]: 17.1 µM
- GI50 [24]: 2.95 µM
- TGI [24]: 10.8 µM
- GI50 [25]: 3.92 µM
- TGI [25]: > 100 µM
- GI50 [26]: 5.16 µM
- TGI [26]: 72 µM
- GI50 [27]: 3.8 µM
- TGI [27]: > 100 µM
- GI50 [28]: 0.942 µM
- TGI [28]: > 100 µM
- GI50 [29]: 2.44 µM
- TGI [29]: 21.9 µM
- GI50 [30]: 6.35 µM
- TGI [30]: > 100 µM
- GI50 [31]: 2.04 µM
- TGI [31]: 35.3 µM
- GI50 [32]: 2.55 µM
- TGI [32]: 15 µM
- GI50 [33]: 1.7 µM
- TGI [33]: 44.6 µM
- GI50 [34]: 2.72 µM
- TGI [34]: 27.5 µM
- GI50 [35]: 0.941 µM
- TGI [35]: 48.3 µM
- GI50 [36]: 4.43 µM
- TGI [36]: 47 µM
- GI50 [37]: 3.49 µM
- TGI [37]: > 100 µM
- GI50 [38]: 2.79 µM
- TGI [38]: > 100 µM
- GI50 [39]: 0.717 µM
- TGI [39]: 4.88 µM
- GI50 [40]: 6.53 µM
- TGI [40]: 38.6 µM
- GI50 [41]: 2.18 µM
- TGI [41]: > 100 µM
- GI50 [42]: 1.78 µM
- TGI [42]: 14 µM
- GI50 [43]: 4.28 µM
- TGI [43]: 19.5 µM
- GI50 [44]: 11.1 µM
- TGI [44]: 56.1 µM
- GI50 [45]: 3.03 µM
- TGI [45]: 40.4 µM
- GI50 [46]: 2.34 µM
- TGI [46]: 6.52 µM
- GI50 [47]: 3.77 µM
- TGI [47]: 30.2 µM
- GI50 [48]: 2.58 µM
- TGI [48]: 98.9 µM
- GI50 [49]: 4.62 µM
- TGI [49]: > 100 µM
- GI50 [50]: 3.9 µM
- TGI [50]: 24.8 µM
- GI50 [51]: 2.57 µM
- TGI [51]: 28.5 µM
- GI50 [52]: 1.66 µM
- TGI [52]: > 100 µM
- GI50 [53]: 2.65 µM
- TGI [53]: 71 µM
- GI50 [54]: 4.4 µM
- TGI [54]: 79.2 µM
- GI50 [55]: 1.47 µM
- TGI [55]: 11.6 µM
- GI50 [58]: 4.31 µM
- TGI [58]: > 100 µM
- GI50 [56]: 2.46 µM
- TGI [56]: 9.64 µM
- GI50 [57]: 3 µM
- TGI [57]: > 100 µM
